According to patent publication US12422369B2, “Immunosensor” (PPB Technology Pty Ltd, priority 2019, dated 2025):
Values joined by “and” are separate entries in the source; they are usually repeats but may differ in a detail not shown here. Equal values may be shown once.

Columns and labels:
[1] = system: T9NB1-RLuc8; experiment: BRET^2 competitive assay for TCC with nanobody sensor T9NB1-RLuc8/TCC-4′-S—(CH2)2—CO-GFP^2; format: binding, camelid; settings: 10 nM T9NB1-RLuc8 and 10 nM TCC-4′-S—(CH2)2—CO-GFP^2, 2% DMSO/PBS, 5 minutes at 22° C.
Protocol: Instrumentation: Simultaneous dual emission BRET measurements were carried out with a CLARIOstar microplate reader (BMG LabTech). BRET^2 measurements used the BRET^2 emission filter set comprising RLuc/CLZ400a emission filter (410 nm bandpass, 80 nm) and the GFP^2 emission filter (515 nm bandpass, 30 nm). BRET^2 ratios were calculated as ratios of integrated acceptor emission channel intensity to integrated donor emission channel intensity.
BRET^2 assay: All reactions were carried out in white 96-well plates (Perkin-Elmer, Australia). A final concentration of 10 nM of T9NB1-RLuc8 and 10 nM of TCC-4′-S—(CH2)2—CO-GFP^2 were used for all assays, in a final volume of 100 μL 2% DMSO in PBS.
To construct a calibration curve, 10 nM of T9NB1-RLuc8 and 10 nM of TCC-4′-S—(CH2)2—CO-GFP^2 were incubated for 5 minutes at 22° C. with a range of different final concentrations of TCC, namely 1, 3, 6.3, 12.5, 25, 50, 100 and 200 nM, added from a stock of TCC in DMSO or DMSO only (2% final concentration in PBS). At the end of the incubation time, 1 μL of coelenterazine 400a (1 mM stock) in EtOH was added to the reaction mixture (final [CLZ400a]=10 μM) and the luminescence intensities recorded immediately. The BRET^2 ratios were calculated and are presented as a function of the concentration of TCC in FIG. 8. […]

[2] = target: Anti-FLAG mAb; experiment: Competitive BRET binding assay for FLAG peptide, antibody-12/36-RLuc8 conjugate, Fluorostar plate-reader; settings: mAb-12/36-RLuc8 50 nM, 200 nM FLAG-GFP^2, Fluorostar
Protocol: In order to determine whether the immunosensors of the present invention can be used to detect and measure the concentration of an analyte, the antibody-12/36-RLuc8 conjugate was incubated with 200 nM FLAG-GFP^2 and varying concentrations of FLAG peptide (from 256 μM to less than 0.5 nM) for 5 minutes before coelenterazine 400a was added and the BRET ratio determined using the Fluorostar plate-reader as described in Example 9. The BRET ratios were plotted against Log [FLAG] values.

[3] = system: Anti-FLAG mAb; experiment: Competitive BRET calibration for FLAG peptide, mAb-24/36-RLuc8 conjugate, Clariostar plate-reader; format: binding; settings: 5 nM mAb-24/36-RLuc8, 10 nM FLAG-GFP^2, 5 minute incubation
Protocol: A calibration was also performed using the Clariostar plate-reader (BMG) and the antibody-24/36-RLuc8 conjugate. Measurements were made in the bioluminescence mode and the dual linear variable filters were set to 410-80 (Gain: 3300) for RLuc8 emission and 515-30 (Gain: 4095) for GFP^2 emission. An integration time of 1.54 s was used. Coelenterazine 400a was prepared by adding 100 μL ethanol to a dried aliquot (0.5 mM), with 1 μL added to the final assay to give a final concentration of 5 μM. A final concentration of 5 nM of RLuc8-conjugate and 10 nM GFP^2-FLAG was used for assays. The final assay volume was 100 μL with PBS (with BSA (1 mg/ml) used to make up the volume.
To construct a standard curve using the Clariostar, 5 nM mAb-24/36-RLuc8 conjugate was added to 10 nM FLAG-GFP^2 in PBS with BSA (1 mg/mL) and the mixture incubated with unlabelled FLAG peptide (various concentrations) for 5 minutes at 28° C. Coelenterazine 400a was added and the BRET response determined. BRET ratio was calculated by dividing the GFP^2 intensity (average 0-13.86 s) by the RLuc8 intensity (average 0-13.86 s). The BRET ratios were normalised using the normalisation function in Graphpad Prism 7 for Windows, plotted against Log [FLAG] values and fitted with a Log [Agonist] vs normalized response—variable slope model.

[4] = Luciferase activity with Coelenterazine 400a; format: biochemical
Protocol: Luciferase activity: Coelenterazine 400a (Cayman Chemicals) (6-phenyl-2,8-bis(phenylmethyl)-imidazo[1,2-a]pyrazin-3(7H)-one) (1 mg) was dissolved in 10.2 mL ethanol and partitioned into 200 μL aliquots which were dried (Speedivac) and stored at −20° C. until use.
Coelenterazine 400a (50 nmol) was dissolved in 50 μL ethanol and 450 μL water was added. RLuc8 monomer (2.4 mg/mL) and RLuc8 dimer (4.8 mg/mL) were diluted in 1 mg/mL BSA in buffer. In a well of a white 96-well Optiplate (Perkin Elmer) was added TBS, PBS or 100 mM sodium phosphate pH 7.0, 2 μL luciferase enzyme (1/10 or 1/100 dilution) and 5 μL of 0.1 mM Coelenterazine 400a solution. The final volume in each well was 100 μL. The light produced was measured in a FLUOstar Optima (BMG Labtech) using luminescence optics and no filter.

O=C(Nc1ccc(Cl)cc1)Nc1ccc(Cl)c(Cl)c1 [TCC, triclocarban]
EC50 [1]: 17.3 nM and 17 nM

DYKDDDDK [FLAG peptide]
EC50 [2]: 274 nM
EC50 [3]: 1.41 nM

B1: N-His-RLuc8: N-terminal hexahistidine tagged Renilla reniformis luciferase RLuc8-LPETGG, SEQ ID NO: 5 (protein)
chain: MGHHHHHHGTENLYFQGSASKVYDPEQRKRMITGPQWWARCKQMNVLDSFINYYDSEKHAENAVIFLHGNATSSYLWRHVVPHIEPVARCIIPDLIGMGKSGKSGNGSYRLLDHYKYLTAWFELLNLPKKIIFVGHDWGAALAFHYAYEHQDRIKAIVHMESVVDVIESWDEWPDIEEDIALIKSEEGEKMVLENNFFVETVLPSKIMRKLEPEEFAAYLEPFKEKGEVRRPTLSWPREIPLVKGGKPDVVQIVRNYNAYLRASDDLPKLFIESDPGFFSNAIVEGAKKFPNTEFVKVKGLHFLQEDAPDEMGKYIKSFVERVLKNEQLPETGGAALEAS
modifications: N-His-RLuc8
Luciferase activity, monomer versus dimer ([4]; Coelenterazine 400a, FLUOstar Optima, no filter): more active than the dimeric form
Luciferase activity over time ([4]; after Coelenterazine 400a addition, data not shown): decreased very rapidly (over a few seconds)
